Laboratory results as given in patent US5580775A, “High affinity, brain-specific nucleic acids encoding a L-proline transporter, and vectors, and host cells comprising the same” (Emory University, priority 1992, dated 1996).
Read-outs that look alike come from different tables or passages of the source. Peptide text beside a SMILES is read from it.

B1: high affinity, Na^+ -dependent rat brain L-proline transporter (Rattus norvegicus) (protein)
chain: MKKLQEAHLRKPVTPDLLMTPSDQGDVDLDVDFAADRGNWTGKLDFLLSCIGYCVGLGNVWRFPYRAYTNGGGAFLVPYFLMLAICGIPLFFLELSLGQFSSLGPLAVWKISPLFKGAGAAMLLIVGLVAIYYNMIIAYVLFYLFASLTSNLPWEHCGNWWNTERCLEHRGPKDGNGALPLNLSSTVSPSEEYWSRYVLHIQGSQGIGRPGEIRWNLCLCLLLAWVIVFLCILKGVKSSGKVVYFTATFPYLILLMLLVRGVTLPGAWKGIQFYLTPQFHHLLSSKVWIEAALQIFYSLGVGFGGLLTFASYNTFHQNIYRDTFIVTLGNAITSILAGFAIFSVLGYMSQELGVPVDQVAKAGPGLAFVIYPQAMTMLPLSPFWSFLFFFMLLTLGLDSQFAFLETIVTAVTDEFPYYLRPKKAVFSGLICVAMYLMGLILTTDGGMYWLVLLDDYSASFGLMVVVITTCLAVTRVYGIQRFCRDIHMMLGFKPGLYFRACWLFLSPATLLALLVYSIVKYQPSEYGSYRFPAWAELLGILMGLLSCLMIPAGMLVAVLREEGSLWERLQQASRPAIDWGPSLEENRTGMYVATLAGSQSPKPLMVHMRKYGGITSFENTAIEVDREIAEEEEESMM

What was measured:
[1] = biological target: T1, rat brain L-proline transporter (Rattus norvegicus, UniProt P28573); assay: cell-based
T1 sequence (P28573 1-637): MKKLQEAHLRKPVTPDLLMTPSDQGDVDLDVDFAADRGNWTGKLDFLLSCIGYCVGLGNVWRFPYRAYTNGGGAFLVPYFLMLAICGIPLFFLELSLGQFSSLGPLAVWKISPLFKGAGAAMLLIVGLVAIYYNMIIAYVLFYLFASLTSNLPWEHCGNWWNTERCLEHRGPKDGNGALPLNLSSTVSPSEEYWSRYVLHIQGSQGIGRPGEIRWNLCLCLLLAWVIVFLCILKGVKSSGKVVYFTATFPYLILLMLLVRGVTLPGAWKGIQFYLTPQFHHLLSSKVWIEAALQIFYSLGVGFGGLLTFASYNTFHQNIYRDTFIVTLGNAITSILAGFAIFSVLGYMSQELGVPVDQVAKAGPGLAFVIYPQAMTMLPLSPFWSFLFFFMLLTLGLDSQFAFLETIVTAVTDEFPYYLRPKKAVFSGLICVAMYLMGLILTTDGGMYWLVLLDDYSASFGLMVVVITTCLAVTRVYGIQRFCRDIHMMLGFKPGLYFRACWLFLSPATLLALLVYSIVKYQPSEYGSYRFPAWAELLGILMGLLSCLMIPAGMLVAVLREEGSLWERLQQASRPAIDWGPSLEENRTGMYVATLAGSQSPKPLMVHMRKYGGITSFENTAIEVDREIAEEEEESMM

[2] = biological target: T1, rat brain L-proline transporter; assay: Transport of L-[3H]glutamate or D-[3H]aspartate in HeLa fibroblasts expressing the transporter cDNA; assay type: cell-based; conditions: transient expression in HeLa fibroblasts
[3] = biological target: T2, high affinity, Na^+ -dependent rat brain L-proline transporter (Rattus norvegicus, UniProt P28573); assay: L-proline uptake (saturation kinetics, Na+ dependence) in HeLa cells transfected with pPROT
T2 sequence (P28573 1-637): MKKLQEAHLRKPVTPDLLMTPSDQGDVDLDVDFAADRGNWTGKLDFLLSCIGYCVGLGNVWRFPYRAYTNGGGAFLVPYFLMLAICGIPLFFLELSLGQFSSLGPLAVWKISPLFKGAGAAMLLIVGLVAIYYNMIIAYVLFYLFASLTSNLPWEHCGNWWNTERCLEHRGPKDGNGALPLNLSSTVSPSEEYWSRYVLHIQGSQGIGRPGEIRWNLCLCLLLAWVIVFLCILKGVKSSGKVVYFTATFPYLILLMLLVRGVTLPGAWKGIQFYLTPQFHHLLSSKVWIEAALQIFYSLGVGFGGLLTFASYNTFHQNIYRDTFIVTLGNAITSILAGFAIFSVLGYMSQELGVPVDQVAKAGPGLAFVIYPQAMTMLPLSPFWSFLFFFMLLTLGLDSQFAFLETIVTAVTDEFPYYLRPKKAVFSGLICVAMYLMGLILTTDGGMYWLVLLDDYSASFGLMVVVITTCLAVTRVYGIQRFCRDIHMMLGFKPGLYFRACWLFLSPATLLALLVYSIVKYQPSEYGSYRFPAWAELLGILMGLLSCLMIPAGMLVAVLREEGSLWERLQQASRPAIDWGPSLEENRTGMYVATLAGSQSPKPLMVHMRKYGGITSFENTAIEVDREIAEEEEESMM

rat brain synaptosomes = conditions: cited from earlier work
[4] = substrate: O=C(O)[C@@H]1CCCN1; assay: cells, lysate or membranes; conditions: other: 20 min incubation, 50 nM L-[3H]proline plus unlabeled L-proline, HeLa cells transfected with pPROT
[5] = read-out: Ki values in excess of 100 μM (inhibition of proline uptake)
[6] = Ki (inhibition of proline uptake)
[7] = read-out: Ki (inhibition of proline uptake)

Row | Molecule | Ki [1, 5] | further results
1 | O=C(O)[C@H]1CCCN[C@H]1C(=O)O (racemic) [(+/-)cis-2,3-piperidine dicarboxylic acid] | > 100 µM | 
2 | N[C@]1(C(=O)O)CC[C@H](C(=O)O)C1 (relative stereo) [Trans-ACPD, trans1-aminocyclopentane-1,3-dicarboxylic acid] | > 100 µM | 
3 | NC1(C(=O)O)CC1 [1-Amino-1-cyclopropane carboxylic acid] | > 100 µM | 
4 | O=C(O)C1C=CCN1 (stereo not drawn) [3,4-Dehydroproline] |  | Ki [1, 6]: 31 µM
5 | N[C@H](CC(=O)O)C(=O)O [D-Aspartic acid] | > 100 µM | transport induced by the transporter cDNA (in words) [2]: did not induce transport
6 | CCCC[C@@H](N)C(=O)O [D-Norleucine] | > 100 µM | 
7 | O=C(O)[C@H]1CCCN1 [D-Proline] | > 100 µM | Ki ([1]; Ki (inhibition of L-[3H]proline transport)): > 100 µM
8 | NCCCC(=O)O [GABA, gammaaminobutyric acid] | > 100 µM | 
9 | NCC(=O)O [Glycine] | > 100 µM | 
10 | NCC(=O)N1CCC[C@H]1C(=O)O [Glycylproline] (H-Gly-Pro-OH) | > 100 µM | 
11 | NC1CCN(O)C1=O (stereo not drawn) [HA-966, 3-Amino-1-hydroxy-2-pyrrolidone] | > 100 µM | 
12 | O=C(O)[C@@H]1C[C@@H](O)CN1 [Hydroxyproline] | > 100 µM | 
13 | N[C@H](C(=O)O)c1cc(=O)[nH]o1 [Ibotenic acid] | > 100 µM | 
14 | C=C(C)[C@H]1CN[C@H](C(=O)O)[C@H]1CC(=O)O [Kainic acid] | > 100 µM | 
15 | C[C@H](N)C(=O)O [L-Alanine] | > 100 µM | 
16 | N=C(N)NCCC[C@H](N)C(=O)O [L-Arginine] | > 100 µM | 
17 | NC(=O)C[C@H](N)C(=O)O [L-Asparagine] | > 100 µM | 
18 | N[C@@H](CC(=O)O)C(=O)O [L-Aspartic acid] | > 100 µM | inhibition of L-proline uptake (in words) [1]: inability
19 | O=C(O)[C@@H]1CCN1 [L-Azetidine-2-carboxylic acid] | > 100 µM | Ki [1, 7]: 115 µM
20 | N[C@@H](CS)C(=O)O [L-Cysteine] |  | Ki [1, 6]: 91 µM
21 | N[C@@H](CSSC[C@H](N)C(=O)O)C(=O)O [L-Cystine] | > 100 µM | 
22 | N[C@@H](CCC(=O)O)C(=O)O [L-Glutamic acid] | > 100 µM | inhibition of L-proline uptake (in words) [1]: inability; transport induced by the transporter cDNA (in words) [2]: did not induce transport
23 | NC(=O)CC[C@H](N)C(=O)O [L-Glutamine] | > 100 µM | 
24 | N[C@@H](Cc1c[nH]cn1)C(=O)O [L-Histidine] |  | Ki [1, 6]: 83 µM

Row | Molecule | Ki [1, 5] | further results
25 | CC[C@H](C)[C@H](N)C(=O)O [L-Isoleucine] | > 100 µM | 
26 | CC(C)C[C@H](N)C(=O)O [L-Leucine] | > 100 µM | 
27 | NCCCC[C@H](N)C(=O)O [L-Lysine] | > 100 µM | 
28 | CSCC[C@H](N)C(=O)O [L-Methionine] | > 100 µM | 
29 | CCCC[C@H](N)C(=O)O [L-Norleucine] |  | Ki [1, 6]: 37 µM
30 | N[C@@H](Cc1ccccc1)C(=O)O [L-Phenylalanine] |  | Ki [1, 6]: 48 µM
31 | O=C(O)[C@@H]1CCCCN1 [L-Pipecolic acid] |  | Ki [1, 6]: 14 µM
32 | NC(=O)[C@@H]1CCCN1 [L-Prolinamide] | > 100 µM | 
33 | COC(=O)[C@@H]1CCCN1 [L-Proline methyl ester] | > 100 µM | 
34 | O=C1CC[C@@H](C(=O)O)N1 [L-Pyroglutamic acid] | > 100 µM | 
35 | N[C@@H](CO)C(=O)O [L-Serine] | > 100 µM | 
36 | C[C@@H](O)[C@H](N)C(=O)O [L-Threonine] | > 100 µM | 
37 | O=C(O)[C@H]1CN[C@H](C(=O)O)C1 [L-Trans-2,4-PDC, trans-L-pyrrolidone-2,4-dicarboxylate] | > 100 µM | inhibition of L-proline uptake (in words) [1]: none of the excitatory amino acid analogs examined, including the specific L-glutamate uptake blocker, trans-L-pyrrolidone-2, 4-dicarboxylate (L-trans-2,4-PDC) (Bridges et al., 1991), significantly inhibited L-proline uptake
38 | N[C@@H](Cc1c[nH]c2ccccc12)C(=O)O [L-Tryptophan] | > 100 µM | 
39 | N[C@@H](Cc1ccc(O)cc1)C(=O)O [L-Tyrosine] |  | Ki ([1]; Ki values in excess of 100 μM (inhibition of proline uptake)): > 100 µM
40 | CC(C)[C@H](N)C(=O)O [L-Valine] | > 100 µM | 
41 | O=C(O)[C@@H]1CCCN1 [L-proline] |  | endogenous L-proline transport as percent of pPROT-induced transport (HeLa cells): less than 10%; Km (HeLa cells; read-out: Km of endogenous L-proline transport, plasmid vector-transfected HeLa cells): > 200 µM; specific L-proline uptake upon isotonic substitution of NaCl with choline chloride ([3]; Na+ dependence, choline chloride): abolished; Km ([3]; read-out: apparent Michaelis constant (Km), 20 min incubation, 50 nM L-[3H]proline plus unlabeled L-proline, HeLa cells transfected with pPROT): ~9.7 µM; Km (rat brain synaptosomes; read-out: Km, high affinity component, high affinity): 6 to 12 µM; Km (rat brain synaptosomes; read-out: Km, low affinity component, low affinity): > 190 µM
42 | CC(=O)N1CCC[C@H]1C(=O)O [N-acetylproline] | > 100 µM | 
43 | CN[C@H](CC(=O)O)C(=O)O [N-methyl-D-aspartate] | > 100 µM | 
44 | O=C(O)CNC(=O)[C@@H]1CCCN1 [Prolylglycine] (H-Pro-Gly-OH) | > 100 µM | 
45 | O=C(O)c1ccc[nH]1 [Pyrrole-2-carboxylic acid] | > 100 µM | 
46 | N[C@@H](Cn1oc(=O)[nH]c1=O)C(=O)O [Quisqualic acid] | > 100 µM | 
47 | CNCC(=O)O [Sarcosine] |  | Ki [1, 7]: 30 µM
48 | B1 |  | Km [4]: 9.7 µM
